Source: PubChem BioAssay AID1963964 (Molecular Pharmacology Branch, DTP, NCI, 2024)
Several values for one entry are separate records, joined by “and”; a condition that tells them apart may be missing. Equal values may be shown once.

Tested on: 997726-040-R-J2-PDC tumor spheroids, viability
Test: Anticancer human tumor 997726-040-R-J2-PDC patient-derived squamous cell lung carcinoma cell line growth inhibition [PI3K]
Settings: spheroids with HUVEC and MSC; for viability, T/C: stronger effect = lower value; active means viability on the fitted dose curve at most 10% of control; inactive means the rest
Method in brief: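 We assembled tumor spheroids that included a stromal compartment of HUVEC and MSCs, then exposed them to targeted agents alone and together with PI3K pathway inhibitors. Concentration series descended by half-log from clinically achievable Cmax levels. Viability served as the endpoint.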
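Further: spheroids exposed to compounds for seven days before readout.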

Cn1ncc(Cl)c1-c1cc(C(=O)NC(CN)Cc2cccc(F)c2)sc1Cl (centres undefined) + COc1c(OCCCN2CCOCC2)ccc2c3n(c(=NC(=O)c4cnc(N)nc4)nc12)CCN3
53.2 nM: IC50 (curve of first compound, second compound 0.00316 µM)
inactive: viability, T/C (second compound 0.00316 µM, first compound 0.0316 µM) 55.2% | viability, T/C (second compound 0.00316 µM, first compound 0.1 µM) 43.9% | viability, T/C (second compound 0.00316 µM, first compound 0.316 µM) 25.2% | viability, T/C (second compound 0.00316 µM, first compound 1 µM) 15.7% | viability, T/C (second compound 0.00316 µM, first compound 3.16 µM) 9.84% | viability, T/C (second compound 0.01 µM, first compound 0.0316 µM) 46.3% | viability, T/C (second compound 0.01 µM, first compound 0.1 µM) 39% | viability, T/C (second compound 0.01 µM, first compound 0.316 µM) 21.6% | viability, T/C (second compound 0.01 µM, first compound 1 µM) 12.4% | viability, T/C (second compound 0.0316 µM, first compound 0.0316 µM) 30.6% | viability, T/C (second compound 0.0316 µM, first compound 0.1 µM) 28% | viability, T/C (second compound 0.0316 µM, first compound 0.316 µM) 20% | viability, T/C (second compound 0.0316 µM, first compound 1 µM) 10.6% | viability, T/C (second compound 0.1 µM, first compound 0.0316 µM) 21.4% | viability, T/C (second compound 0.1 µM, first compound 0.1 µM) 19.4% | viability, T/C (second compound 0.1 µM, first compound 0.316 µM) 12.5% | viability, T/C (second compound 0.1 µM, first compound 1 µM) 8.76%
active: viability, T/C (second compound 0.00316 µM, first compound 10 µM) 10.3% | viability, T/C (second compound 0.01 µM, first compound 3.16 µM) 7.68% | viability, T/C (second compound 0.01 µM, first compound 10 µM) 10.1% | viability, T/C (second compound 0.0316 µM, first compound 3.16 µM) 8.98% | viability, T/C (second compound 0.0316 µM, first compound 10 µM) 7.48% | viability, T/C (second compound 0.1 µM, first compound 3.16 µM) 8.67% | viability, T/C (second compound 0.1 µM, first compound 10 µM) 5.52% | viability, T/C (second compound 0.316 µM, first compound 0.0316 µM) 4.97% | viability, T/C (second compound 0.316 µM, first compound 0.1 µM) 5.24% | viability, T/C (second compound 0.316 µM, first compound 0.316 µM) 3.32% | viability, T/C (second compound 0.316 µM, first compound 1 µM) 4.64% | viability, T/C (second compound 0.316 µM, first compound 3.16 µM) 4.59% | viability, T/C (second compound 0.316 µM, first compound 10 µM) 3.13% | viability, T/C (second compound 1 µM, first compound 0.0316 µM) 1.15% | viability, T/C (second compound 1 µM, first compound 0.1 µM) 1.24% | viability, T/C (second compound 1 µM, first compound 0.316 µM) 1.45% | viability, T/C (second compound 1 µM, first compound 1 µM) 1.8% | viability, T/C (second compound 1 µM, first compound 3.16 µM) 2.57% | viability, T/C (second compound 1 µM, first compound 10 µM) 0.94%
< 31.6 nM: IC50 (curve of first compound, second compound 0.01 µM) | IC50 (curve of first compound, second compound 0.0316 µM) | IC50 (curve of first compound, second compound 0.1 µM) | IC50 (curve of first compound, second compound 0.316 µM) | IC50 (curve of first compound, second compound 1 µM)

C=CC(=O)N1CCN(c2nc(=O)n(-c3c(C)ccnc3C(C)C)c3nc(-c4c(O)cccc4F)c(F)cc23)C(C)C1 (centres undefined)
inactive: viability, T/C (compound 0.0316 µM) 105% [middle of 4 runs] | viability, T/C (compound 0.1 µM) 91.2% and 100% (2×) and 96.7% | viability, T/C (compound 0.316 µM) 109% [middle of 4 runs] | viability, T/C (compound 1 µM) 109% [middle of 4 runs] | viability, T/C (compound 3.16 µM) 126% [middle of 4 runs] | viability, T/C (compound 10 µM) 122% [middle of 4 runs]
> 10000 nM: IC50 (curve of compound)
